Test results as given in the supplement of paper PMC10307832.

Legend:
Motesanib + Trametinib = compound: CC1(C)CNc2cc(NC(=O)c3cccnc3NCc3ccncc3)ccc21 [Motesanib] + CC(=O)Nc1cccc(-n2c(=O)n(C3CC3)c(=O)c3c(Nc4ccc(I)cc4F)n(C)c(=O)c(C)c32)c1 [Trametinib] (partner 0.02 µM); experiment: relative viability (nuclei count vs DMSO), 5 days (fraction); higher = more cells survive
Procedure, shortened: (§1)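 For relative viability, nuclei counts in treated wells were divided by those in vehicle wells. Lung cancer cell lines had been pin-tool dosed in 1536-well plates the day after seeding and cultured for 5 days, then fixed and stained in one step (final 0.05% Triton X-100, 1% formaldehyde, 1 ug/ml Hoechst) and imaged at 4×. Doses were one drug alone or a fixed anchor-drug dose plus five library-drug doses (not always all listed) in √10 steps, and values are duplicate-plate medians.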

[1] = compound: C[C@@]1(C(=O)Nc2ccc(F)nc2)CCCN1c1nc(Nc2cc(C3CC3)n[nH]2)c2cccn2n1 + Cc1nc(Nc2ncc(C(=O)Nc3c(C)cccc3Cl)s2)cc(N2CCN(CCO)CC2)n1 [Dasatinib] (partner 0.075 µM); experiment: as above
Procedure, shortened: as §1

| Cell Line | relative viability (Motesanib + Trametinib; first compound 0.01 µM) | relative viability (Motesanib + Trametinib; first compound 0.03162 µM) | relative viability (Motesanib + Trametinib; first compound 0.1 µM) | relative viability (Motesanib + Trametinib; first compound 0.3162 µM) | relative viability (Motesanib + Trametinib; first compound 1 µM) | relative viability ([1]; first compound 0.04 µM) | relative viability ([1]; first compound 0.1265 µM) | relative viability ([1]; first compound 0.4 µM) | relative viability ([1]; first compound 1.265 µM) |
| --- | --- | --- | --- | --- | --- | --- | --- | --- | --- |
| NCI-H441 | 0.41 | 0.435 | 0.463 | 0.577 | 0.472 | 0.385 | 0.155 | 0.223 | 0.203 |
| LOU-NH91 | 0.789 | 0.767 | 0.819 | 0.802 | 0.781 | 0.461 | 0.449 | 0.395 | 0.286 |
| NCI-H3122 | 0.218 | 0.227 | 0.229 | 0.211 | 0.197 | 0.581 | 0.786 | 0.348 | 0.677 |
| NCI-H460 | 0.139 | 0.104 | 0.209 | 0.179 | 0.142 | 0.258 | 0.101 | 0.0641 | 0.0353 |
| NCI-H650 | 0.916 | 1.07 | 0.946 | 1.02 | 1.06 | 0.404 | 0.283 | 0.321 | 0.29 |
| NCI-H661 | 0.485 | 0.547 | 0.606 | 0.547 | 0.571 | 0.762 | 0.841 | 0.669 | 0.517 |
| NCI-H1793 | 0.375 | 0.362 | 0.513 | 0.409 | 0.523 | 0.448 | 0.36 | – | 0.335 |
| NCI-H1734 | 0.6 | 0.625 | 0.644 | 0.676 | 0.723 | 0.345 | 0.296 | 0.29 | 0.185 |
| LXF-289 | 0.624 | 0.684 | 0.689 | 0.728 | 0.704 | 0.13 | 0.119 | 0.0865 | 0.0646 |
| H3255 | 0.533 | 0.681 | 0.684 | 0.626 | 0.67 | 0.36 | 0.361 | 0.282 | 0.235 |
| 201T | 0.743 | 0.71 | 0.736 | 0.722 | 0.742 | 0.326 | 0.29 | 0.301 | 0.324 |
| NCI-H2126 | 0.58 | 0.579 | 0.579 | 0.543 | 0.547 | 0.346 | 0.242 | 0.262 | 0.294 |
| HOP-62 | 0.366 | 0.379 | 0.37 | 0.405 | 0.424 | 0.662 | 0.565 | 0.469 | 0.374 |
| CAL-12T | 0.324 | 0.316 | 0.33 | 0.402 | 0.419 | 0.239 | 0.146 | 0.101 | 0.0918 |
| NCI-H520 | 0.516 | 0.561 | 0.68 | 0.655 | 0.627 | 0.207 | 0.176 | 0.176 | 0.229 |
| NCI-H1755 | 0.782 | 0.765 | 0.799 | 0.85 | 0.831 | 0.29 | 0.262 | 0.241 | 0.171 |
| NCI-H2023 | 0.666 | 0.339 | 0.574 | 0.589 | 0.569 | 0.407 | 0.165 | 0.154 | 0.105 |
| NCI-H2009 | 0.244 | 0.316 | 0.273 | 0.291 | 0.289 | 0.279 | 0.224 | 0.166 | 0.154 |
